# Columns and labels:
# VEGFR2 (KDR) kinase = VEGFR2 (KDR) kinase (Homo sapiens (Human), UniProt P35968); test: VEGFR2 Kinase Assay (biochemical KDR kinase assay, poly-Glu-Tyr ELISA); conditions: purified cytoplasmic domain KDR protein, 2.7 μM ATP
# Experimental: VEGFR2 kinase potency of select analogs was determined by the following assay:
# Biochemical KDR kinase assays were performed in 96 well microtiter plates that were coated overnight with 75 μg/well of poly-Glu-Tyr (4:1) in 10 mM Phosphate Buffered Saline (PBS), pH 7.4. The coated plates were washed with 2 mls per well PBS+0.05% Tween-20 (PBS-T), blocked by incubation with PBS containing 1% BSA, then washed with 2 mls per well PBS-T prior to starting the reaction. Reactions were carried out in 100 μL reaction volumes containing 2.7 μM ATP in kinase buffer (50 mM Hepes buffer pH 7.4, 20 mM MgCl2, 0.1 mM MnCl2 and 0.2 mM Na3VO4). Test compounds were reconstituted in 100% DMSO and added to the reaction to give a final DMSO concentration of 5%. Reactions were initiated by the addition 20 ul per well of kinase buffer containing 200-300 ng purified cytoplasmic domain KDR protein (BPS Bioscience, San Diego, Calif.). Following a 15 minute incubation at 30° C., the reactions were washed 2 mls per well PBS-T. 100 μl of a monoclonal anti-phosphotyrosine antibody-peroxidase conjugate diluted 1:10,000 in PBS-T was added to the wells for 30 minutes. Following a 2 mis per well wash with PBS-Tween-20, 100μl of O-Phenylenediamine Dihydrochloride in phosphate-citrate buffer, containing urea hydrogen peroxide, was added to the wells for 7-10 minutes as a colorimetric substrate for the peroxidase. The reaction was terminated by the addition of 100 μl of 2.5N H2SO4 to each well and read using a microplate ELISA reader set at 492 nm. IC50 values for compound inhibition were calculated directly from graphs of optical density (arbitrary units) versus compound concentration following subtraction of blank values.
# PDGFRβ kinase = PDGFRβ kinase (Homo sapiens (Human), UniProt P09619); test: PDGFRβ Kinase Assay (biochemical, poly-Glu-Tyr ELISA); conditions: purified cytoplasmic domain PDGFR-b protein, 36 μM ATP
# Chain of PDGFRβ kinase (P09619 554-1106): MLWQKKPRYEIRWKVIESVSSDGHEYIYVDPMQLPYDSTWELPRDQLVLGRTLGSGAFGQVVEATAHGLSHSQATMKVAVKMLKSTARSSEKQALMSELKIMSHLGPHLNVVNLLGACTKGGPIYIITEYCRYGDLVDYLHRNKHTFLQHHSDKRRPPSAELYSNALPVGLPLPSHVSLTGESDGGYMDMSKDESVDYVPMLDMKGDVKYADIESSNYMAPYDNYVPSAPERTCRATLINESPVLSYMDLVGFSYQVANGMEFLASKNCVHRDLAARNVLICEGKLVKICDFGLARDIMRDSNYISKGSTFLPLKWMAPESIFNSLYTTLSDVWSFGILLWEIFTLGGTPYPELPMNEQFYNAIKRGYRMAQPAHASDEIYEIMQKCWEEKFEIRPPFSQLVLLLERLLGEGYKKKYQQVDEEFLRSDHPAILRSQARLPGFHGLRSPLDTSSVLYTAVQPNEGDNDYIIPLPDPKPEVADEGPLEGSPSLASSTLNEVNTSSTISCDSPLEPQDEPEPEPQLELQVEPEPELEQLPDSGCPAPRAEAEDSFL
# Experimental: Biochemical PDGFR3 kinase assays were performed in 96 well microtiter plates that were coated overnight with 75 μg of poly-Glu-Tyr (4:1) in 10 mM Phosphate Buffered Saline (PBS), pH 7.4. The coated plates were washed with 2 mls per well PBS+0.05% Tween-20 (PBS-T), blocked by incubation with PBS containing 1% BSA, then washed with 2 mls per well PBS-T prior to starting the reaction. Reactions were carried out in 100 μL reaction volumes containing 36 μM ATP in kinase buffer (50 mM Hepes buffer pH 7.4, 20 mM MgCl2, 0.1 mM MnCl2 and 0.2 mM Na3VO4). Test compounds were reconstituted in 100% DMSO and added to the reaction to give a final DMSO concentration of 5%. Reactions were initiated by the addition 20 ul per well of kinase buffer containing 200-300 ng purified cytoplasmic domain PDGFR-b protein (Millipore). Following a 60 minute incubation at 30° C., the reactions were washed 2 mls per well PBS-T. 100 μl of a monoclonal anti-phosphotyrosine antibody-peroxidase conjugate diluted 1:10,000 in PBS-T was added to the wells for 30 minutes. Following a 2 mls per well wash with PBS-Tween-20, 100 μl of O-Phenylenediamine Dihydrochloride in phosphate-citrate buffer, containing urea hydrogen peroxide, was added to the wells for 7-10 minutes as a colorimetric substrate for the peroxidase. The reaction was terminated by the addition of 100 μl of 2.5N H2SO4 to each well and read using a microplate ELISA reader set at 492 nm. IC50 values for compound inhibition were calculated directly from graphs of optical density (arbitrary units) versus compound concentration following subtraction of blank values.
# Chain of VEGFR2 (KDR) kinase (P35968 786-1356, species assumed): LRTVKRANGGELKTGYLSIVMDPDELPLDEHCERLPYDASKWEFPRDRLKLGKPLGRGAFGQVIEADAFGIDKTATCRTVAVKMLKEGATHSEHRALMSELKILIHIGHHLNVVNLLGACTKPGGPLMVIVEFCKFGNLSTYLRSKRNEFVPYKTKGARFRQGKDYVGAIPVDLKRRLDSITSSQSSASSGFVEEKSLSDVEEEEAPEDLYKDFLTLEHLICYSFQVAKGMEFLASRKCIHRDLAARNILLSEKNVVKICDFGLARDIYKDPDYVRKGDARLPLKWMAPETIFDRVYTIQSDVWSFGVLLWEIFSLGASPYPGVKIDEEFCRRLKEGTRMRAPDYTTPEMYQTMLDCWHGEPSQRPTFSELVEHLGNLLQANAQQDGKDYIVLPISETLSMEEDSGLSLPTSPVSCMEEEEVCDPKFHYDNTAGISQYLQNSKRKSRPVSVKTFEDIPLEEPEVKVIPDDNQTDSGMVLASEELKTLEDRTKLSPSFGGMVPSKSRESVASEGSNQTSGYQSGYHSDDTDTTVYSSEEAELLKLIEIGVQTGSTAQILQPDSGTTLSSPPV
SMILES,IC50 (VEGFR2 (KDR) kinase),IC50 (PDGFRβ kinase)
"CC(C)(C)c1ccc(-n2cccc(N3CCc4nc(N)ncc4C3)c2=O)cc1 [Example 2, 3-(2-amino-7,8-dihydropyrido[4,3-d]pyrimidin-6(5H)-yl)-1-(4-(tert-butyl)phenyl)pyridin-2(1H)-one]",286 nM,655 nM
"Cc1cc[nH]c(=O)c1N1CCc2nc(N)ncc2C1 [Example 3, 3-(2-amino-7,8-dihydropyrido[4,3-d]pyrimidin-6(5H)-yl)-4-methylpyridin-2(1H)-one]",> 10000 nM,3890 nM
"Cc1ccn(-c2ccc(C(C)(C)C)cc2)c(=O)c1N1CCc2nc(N)ncc2C1 [Example 4, 3-(2-amino-7,8-dihydropyrido[4,3-d]pyrimidin-6(5H)-yl)-1-(4-tert-butylphenyl)-4-methylpyridin-2(1H)-one]",86 nM,381 nM
"Cc1ccn(-c2cccc(N(C)C)c2)c(=O)c1N1CCc2nc(N)ncc2C1 [Example 14, 3-(2-amino-7,8-dihydropyrido[4,3-d]pyrimidin-6(5H)-yl)-1-[3-(dimethylamino)phenyl]-4-methylpyridin-2(1H)-one]",327 nM,> 1000 nM
"Cc1ccoc1C(=O)Nc1ccc(-n2ccc(C)c(N3CCc4nc(N)ncc4C3)c2=O)cc1 [Example 17, N-{4-[3-(2-amino-7,8-dihydropyrido[4,3-d]pyrimidin-6(5H)-yl)-4-methyl-2-oxopyridin-1(2H)-yl]phenyl}-3-methyl-2-furamide]",29 nM,33 nM
